Data reported in ChEMBL document CHEMBL5260842 (J Med Chem, 2019).

How the values were obtained:
[1] = target: T1, von Hippel-Lindau disease tumor suppressor/Androgen receptor (Homo sapiens, UniProt P10275+P40337); experiment: Protac activity at VHL/AR in AR-positive human LNCaP cells assessed as induction of androgen receptor degradation at 0.1 uM incubated for 6 hrs by Western blot analysis (reference value: 0%); format: cell-based
[2] = target: T1, von Hippel-Lindau disease tumor suppressor/Androgen receptor; experiment: Protac activity at VHL/AR in AR-positive human LNCaP cells assessed as induction of androgen receptor degradation at 0.01 uM incubated for 6 hrs by Western blot analysis (reference value: 0%); format: cell-based
LNCaP = experiment: Cytotoxicity against AR-positive human LNCaP cells assessed as inhibition of cell growth incubated for 7 days in presence of AR agonist, R1881 in charcoal stripped medium by WST-8 assay; format: functional, cell-based; details: 168 h
CWR22R = experiment: Cytotoxicity against AR-positive human 22Rv1 cells assessed as inhibition of cell growth incubated for 7 days in regular culture medium by WST-8 assay; format: functional, cell-based; details: 22Rv1, 168 h
VCaP = experiment: Cytotoxicity against AR-positive human VCaP cells assessed as inhibition of cell growth incubated for 7 days in presence of AR agonist, R1881 in charcoal stripped medium by WST-8 assay; format: functional, cell-based; details: 168 h

T1 sequence (P10275 whole entry, looked up): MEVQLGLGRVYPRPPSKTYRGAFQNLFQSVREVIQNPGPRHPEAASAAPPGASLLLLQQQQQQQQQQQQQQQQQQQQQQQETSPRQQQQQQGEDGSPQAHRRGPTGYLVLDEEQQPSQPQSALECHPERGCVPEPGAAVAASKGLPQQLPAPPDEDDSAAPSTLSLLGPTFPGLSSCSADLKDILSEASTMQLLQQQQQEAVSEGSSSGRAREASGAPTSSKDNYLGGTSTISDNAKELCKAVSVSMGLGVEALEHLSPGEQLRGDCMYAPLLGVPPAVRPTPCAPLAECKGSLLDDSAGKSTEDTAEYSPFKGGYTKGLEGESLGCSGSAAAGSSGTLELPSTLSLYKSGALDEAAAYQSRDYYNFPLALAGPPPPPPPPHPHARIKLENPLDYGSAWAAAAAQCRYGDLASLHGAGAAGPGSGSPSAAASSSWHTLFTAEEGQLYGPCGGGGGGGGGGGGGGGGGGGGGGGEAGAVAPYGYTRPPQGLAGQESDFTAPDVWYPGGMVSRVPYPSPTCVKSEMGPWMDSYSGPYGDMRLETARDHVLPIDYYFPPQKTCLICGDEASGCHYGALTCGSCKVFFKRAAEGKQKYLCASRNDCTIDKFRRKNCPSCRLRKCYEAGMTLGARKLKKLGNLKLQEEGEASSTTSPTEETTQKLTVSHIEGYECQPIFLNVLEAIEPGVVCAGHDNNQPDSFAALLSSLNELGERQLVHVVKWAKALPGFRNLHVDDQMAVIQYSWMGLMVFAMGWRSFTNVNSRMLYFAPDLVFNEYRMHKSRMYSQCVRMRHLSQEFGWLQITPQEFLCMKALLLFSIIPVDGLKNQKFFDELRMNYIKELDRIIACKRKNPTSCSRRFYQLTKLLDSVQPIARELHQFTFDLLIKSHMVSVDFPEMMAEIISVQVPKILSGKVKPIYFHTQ
T1 sequence (P40337 whole entry, looked up): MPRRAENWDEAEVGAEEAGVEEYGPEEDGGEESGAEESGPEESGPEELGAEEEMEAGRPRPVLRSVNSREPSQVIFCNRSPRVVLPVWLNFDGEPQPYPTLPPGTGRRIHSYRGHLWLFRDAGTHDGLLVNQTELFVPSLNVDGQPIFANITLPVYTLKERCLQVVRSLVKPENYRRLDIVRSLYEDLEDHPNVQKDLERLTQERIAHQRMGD

Structure (SMILES) | Activity [1] [%] | Activity [2] [%] | further results
Cc1ncsc1-c1ccc([C@H](C)NC(=O)[C@@H]2C[C@@H](O)CN2C(=O)[C@@H](NC(=O)CCCCN2CCN(c3ccc(C#Cc4ccc(N5C(=S)N(c6ccc(C#N)c(C(F)(F)F)c6)C(=O)C5(C)C)cc4)cn3)CC2)C(C)(C)C)cc1 | 48 | 28 | –
CC1(C)[C@H](NC(=O)c2cnn(CCO)c2)C(C)(C)[C@H]1Oc1ccc(C#N)c(Cl)c1 | – | – | IC50 (LNCaP): 48 nM; IC50 (CWR22R): > 10 µM; IC50 (VCaP): 148 nM
Cc1ncsc1-c1ccc(CNC(=O)[C@@H]2C[C@@H](O)CN2C(=O)[C@@H](NC(=O)CCCCCCCCCCCNC(=O)c2ccc(N3C(=S)N(c4ccc(C#N)c(C(F)(F)F)c4)C(=O)C3(C)C)cc2F)C(C)(C)C)cc1 | 30 | – | –
Cc1ncsc1-c1ccc(CNC(=O)[C@@H]2C[C@@H](O)CN2C(=O)[C@@H](NC(=O)CCCCCCCCCCNC(=O)c2ccc(N3C(=S)N(c4ccc(C#N)c(C(F)(F)F)c4)C(=O)C3(C)C)cc2F)C(C)(C)C)cc1 | 48 | 11 | –
Cc1ncsc1-c1ccc([C@H](C)NC(=O)[C@@H]2C[C@@H](O)CN2C(=O)[C@@H](NC(=O)CCCN2CCN(c3ccc(C#Cc4ccc(N5C(=S)N(c6ccc(C#N)c(C(F)(F)F)c6)C(=O)C5(C)C)cc4)cn3)CC2)C(C)(C)C)cc1 | 61 | 37 | –
Cc1ncsc1-c1ccc(CNC(=O)[C@@H]2C[C@@H](O)CN2C(=O)[C@@H](NC(=O)CCCCCCCNC(=O)c2ccc(N3C(=S)N(c4ccc(C#N)c(C(F)(F)F)c4)C(=O)C3(C)C)cc2F)C(C)(C)C)cc1 | 29 | 8 | –
Cc1ncsc1-c1ccc(CNC(=O)[C@@H]2C[C@@H](O)CN2C(=O)[C@@H](NC(=O)CCCCCCCCCNC(=O)c2ccc(N3C(=S)N(c4ccc(C#N)c(C(F)(F)F)c4)C(=O)C3(C)C)cc2F)C(C)(C)C)cc1 | 48 | 10 | –
Cc1cc([C@H](C(=O)N2C[C@H](O)C[C@H]2C(=O)N[C@@H](CC(=O)NCCCCCCCCCNC(=O)c2ccc(N3C(=S)N(c4ccc(C#N)c(C(F)(F)F)c4)C(=O)C3(C)C)cc2F)c2ccc(-c3sncc3C)cc2)C(C)C)on1 | 50 | 11 | –
Cc1ncsc1-c1ccc(CNC(=O)[C@@H]2C[C@@H](O)CN2C(=O)[C@@H](NC(=O)CCNC(=O)c2ccc(N3C(=S)N(c4ccc(C#N)c(C(F)(F)F)c4)C(=O)C3(C)C)cc2F)C(C)(C)C)cc1 | 26 | – | –
Cc1ncsc1-c1ccc(CNC(=O)[C@@H]2C[C@@H](O)CN2C(=O)[C@@H](NC(=O)CCCCCCc2ccc(C#Cc3ccc(N4C(=S)N(c5ccc(C#N)c(C(F)(F)F)c5)C(=O)C4(C)C)cc3)cn2)C(C)(C)C)cc1 | 63 | 30 | –
Cc1ncsc1-c1ccc(CNC(=O)[C@@H]2C[C@@H](O)CN2C(=O)[C@@H](NC(=O)CCCCCCCCNC(=O)c2ccc(N3C(=S)N(c4ccc(C#N)c(C(F)(F)F)c4)C(=O)C3(C)C)cc2F)C(C)(C)C)cc1 | 66 | 15 | –
Cc1ncsc1-c1ccc(CNC(=O)[C@@H]2C[C@@H](O)CN2C(=O)[C@@H](NC(=O)CCCCNC(=O)c2ccc(N3C(=S)N(c4ccc(C#N)c(C(F)(F)F)c4)C(=O)C3(C)C)cc2F)C(C)(C)C)cc1 | 16 | – | –
Cc1ncsc1-c1ccc(CNC(=O)[C@@H]2C[C@@H](O)CN2C(=O)[C@@H](NC(=O)CCCNC(=O)c2ccc(N3C(=S)N(c4ccc(C#N)c(C(F)(F)F)c4)C(=O)C3(C)C)cc2F)C(C)(C)C)cc1 | 15 | – | –
Cc1ncsc1-c1ccc(CNC(=O)[C@@H]2C[C@@H](O)CN2C(=O)[C@@H](NC(=O)CCCN2CCN(c3ccc(C#Cc4ccc(N5C(=S)N(c6ccc(C#N)c(C(F)(F)F)c6)C(=O)C5(C)C)cc4)cn3)CC2)C(C)(C)C)cc1 | 50 | – | –
Cc1ncsc1-c1ccc(CNC(=O)[C@@H]2C[C@@H](O)CN2C(=O)[C@@H](NC(=O)CCOCCOCCNC(=O)c2ccc(N3C(=S)N(c4ccc(C#N)c(C(F)(F)F)c4)C(=O)C3(C)C)cc2F)C(C)(C)C)cc1 | 32 | – | –
CNC(=O)c1ccc(N2C(=S)N(c3ccc(C#N)c(C(F)(F)F)c3)C(=O)C2(C)C)cc1F [ENZALUTAMIDE] | – | – | IC50 (LNCaP): 25 nM; IC50 (VCaP): 87.4 nM
Cc1ncsc1-c1ccc(CNC(=O)[C@@H]2C[C@@H](O)CN2C(=O)[C@@H](NC(=O)CCCCCCNC(=O)c2ccc(N3C(=S)N(c4ccc(C#N)c(C(F)(F)F)c4)C(=O)C3(C)C)cc2F)C(C)(C)C)cc1 | 54 | – | –
Cc1ncsc1-c1ccc(CNC(=O)[C@@H]2C[C@@H](O)CN2C(=O)[C@@H](NC(=O)CCCCCNC(=O)c2ccc(N3C(=S)N(c4ccc(C#N)c(C(F)(F)F)c4)C(=O)C3(C)C)cc2F)C(C)(C)C)cc1 | 11 | – | –
Cc1cc([C@H](C(=O)N2C[C@H](O)C[C@H]2C(=O)N[C@@H](CC(=O)NCCCCCCCCCNC(=O)c2ccc(C(=O)N[C@H]3C(C)(C)[C@H](Oc4ccc(C#N)c(Cl)c4)C3(C)C)cc2)c2ccc(-c3scnc3C)cc2)C(C)C)on1 | 91 | 43 | –

Now from value to compound, other results behind:

Activity [1] [%] | Activity [2] [%] | Structure (SMILES) | further results
3 | – | Cc1ncsc1-c1ccc([C@H](C)NC(=O)[C@@H]2C[C@@H](O)CN2C(=O)[C@@H](NC(=O)CN2CCN(c3ccc(C#Cc4ccc(N5C(=S)N(c6ccc(C#N)c(C(F)(F)F)c6)C(=O)C5(C)C)cc4)cn3)CC2)C(C)(C)C)cc1 | –
99 | 76 | Cc1ncsc1-c1ccc([C@H](CC(=O)N2CCC(N3CCC(C#Cc4ccc(C(=O)N[C@H]5C(C)(C)[C@H](Oc6ccc(C#N)c(Cl)c6)C5(C)C)cc4)CC3)CC2)NC(=O)[C@@H]2C[C@@H](O)CN2C(=O)[C@@H](NC(=O)C2(C#N)CC2)C(C)(C)C)cc1 | –
80 | 38 | Cc1cc([C@H](C(=O)N2C[C@H](O)C[C@H]2C(=O)N[C@@H](CC(=O)N2CCC(N3CCC(C#Cc4ccc(N5C(=S)N(c6cnc(C#N)c(C(F)(F)F)c6)C(=O)C56CCC6)cc4)CC3)CC2)c2ccc(-c3scnc3C)cc2)C(C)C)on1 | –
77 | 39 | CC(=O)N[C@H](C(=O)N1C[C@H](O)C[C@H]1C(=O)N[C@@H](CC(=O)N1CCC(N2CCC(C#Cc3ccc(C(=O)N[C@H]4C(C)(C)[C@H](Oc5ccc(C#N)c(Cl)c5)C4(C)C)cc3)CC2)CC1)c1ccc(-c2scnc2C)cc1)C(C)(C)C | –
< 5 | – | Cc1ncsc1-c1ccc([C@@H](CC(=O)N2CCC(N3CCC(C#Cc4ccc(C(=O)N[C@H]5C(C)(C)[C@H](Oc6ccc(C#N)c(Cl)c6)C5(C)C)cc4)CC3)CC2)NC(=O)[C@@H]2C[C@@H](O)CN2C(=O)[C@@H](NC(=O)C2(F)CC2)C(C)(C)C)cc1 | –
75 | 27 | Cc1cc([C@H](C(=O)N2C[C@H](O)C[C@H]2C(=O)N[C@@H](CC(=O)NCCCN2CCN(c3ccc(C#Cc4ccc(N5C(=S)N(c6ccc(C#N)c(C(F)(F)F)c6)C(=O)C5(C)C)cc4)cn3)CC2)c2ccc(-c3sncc3C)cc2)C(C)C)on1 | –
0 | – | Cc1ncsc1-c1ccc([C@H](C)NC(=O)[C@@H]2C[C@@H](O)CN2C(=O)[C@@H](NC(=O)N2CCN(c3ccc(C#Cc4ccc(N5C(=S)N(c6ccc(C#N)c(C(F)(F)F)c6)C(=O)C5(C)C)cc4)cn3)CC2)C(C)(C)C)cc1 | –
51 | 34 | Cc1ncsc1-c1ccc([C@H](C)NC(=O)[C@@H]2C[C@@H](O)CN2C(=O)[C@@H](NC(=O)CCN2CCN(c3ccc(C#Cc4ccc(N5C(=S)N(c6ccc(C#N)c(C(F)(F)F)c6)C(=O)C5(C)C)cc4)cn3)CC2)C(C)(C)C)cc1 | –
65 | – | Cc1cc([C@H](C(=O)N2C[C@H](O)C[C@H]2C(=O)N[C@@H](CC(=O)N2CCC(N3CCC(C#Cc4ccc(Cc5c(C)nn(-c6ccc(C#N)c(Cl)c6)c5C)cc4)CC3)CC2)c2ccc(-c3scnc3C)cc2)C(C)C)on1 | –
18 | – | Cc1cc([C@H](C(=O)N2C[C@H](O)C[C@H]2C(=O)N[C@@H](CC(=O)N2CCC(N3CCC(C#Cc4ccc(S(=O)(=O)CC(C)(O)C(=O)Nc5ccc(C#N)c(C(F)(F)F)c5)cc4)CC3)CC2)c2ccc(-c3scnc3C)cc2)C(C)C)on1 (stereo partly drawn) | –
98 | 76 | Cc1cc([C@H](C(=O)N2C[C@H](O)C[C@H]2C(=O)N[C@@H](CC(=O)N2CCC(N3CCC(C#Cc4ccc(C(=O)N[C@H]5C(C)(C)[C@H](Oc6ccc(C#N)c(Cl)c6)C5(C)C)cc4)CC3)CC2)c2ccc(-c3scnc3C)cc2)C(C)C)on1 | –
81 | 20 | Cc1cc([C@H](C(=O)N2C[C@H](O)C[C@H]2C(=O)N[C@@H](CC(=O)N2CCC(N3CCC(C#Cc4ccc(N5C(=S)N(c6ccc(C#N)c(C(F)(F)F)c6)C(=O)C5(C)C)cc4)CC3)CC2)c2ccc(-c3scnc3C)cc2)C(C)C)on1 | –
72 | 22 | Cc1cc([C@H](C(=O)N2C[C@H](O)C[C@H]2C(=O)N[C@@H](CC(=O)N2CCN(c3ccc(C#Cc4ccc(N5C(=S)N(c6ccc(C#N)c(C(F)(F)F)c6)C(=O)C5(C)C)cc4)cn3)CC2)c2ccc(-c3scnc3C)cc2)C(C)C)on1 | –
< 5 | – | Cc1ncsc1-c1ccc([C@H](CC(=O)N2CCC(N3CCC(C#Cc4ccc(C(=O)N[C@H]5C(C)(C)[C@H](Oc6ccc(C#N)c(Cl)c6)C5(C)C)cc4)CC3)CC2)NC(=O)[C@@H]2C[C@@H](O)CN2C(=O)[C@H](NC(=O)C2(F)CC2)C(C)(C)C)cc1 | –
